Assay results: patent publication US8952024B2, “Herbicidal pyrimidone derivatives” (E I du Pont de Nemours and Company, priority 2009, dated 2015)

What was measured:
Format in all cases: in vivo
[1] = system: pigweed (Amaranthus retroflexus); assay: Test A pre-/postemergence plant response
How it was run: (§1)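 Injury scores (0, no effect; 100, complete control) come from visual comparison with untreated controls roughly ten days post-treatment. Test chemicals in a surfactant-containing non-phytotoxic solvent were applied as a directed soil spray preemergence and to one- to two-leaf seedlings postemergence.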

[2] = system: barnyardgrass (Echinochloa crus-galli); assay: Test A pre-/postemergence plant response
How it was run: as §1

[3] = system: downy bromegrass (Bromus tectorum); assay: Test B pre-/postemergence plant response
How it was run: (§2)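 Compound in solvent + surfactant applied pre-em (loam/sand) or post-em (plants 2–18 cm, peat medium); greenhouse hold 13–15 days; visual 0–100 control score.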

[4] = system: goosegrass (Eleusine indica); assay: Test B pre-/postemergence plant response
How it was run: as §2

[5] = system: woolly cupgrass (Eriochloa villosa); assay: Test B pre-/postemergence plant response
How it was run: as §2

[6] = system: morningglory (Ipomoea coccinea); assay: Test B pre-/postemergence plant response
How it was run: as §2

[7] = system: velvetleaf (Abutilon theophrasti); assay: Test B pre-/postemergence plant response
How it was run: as §2

[8] = system: Surinam grass (Brachiaria decumbens); assay: Test B pre-/postemergence plant response
How it was run: as §2

[9] = system: Italian ryegrass (Lolium multiflorum); assay: Test B pre-/postemergence plant response
How it was run: as §2

[10] = system: yellow nutsedge (Cyperus esculentus); assay: Test B pre-/postemergence plant response
How it was run: as §2

[11] = system: blackgrass (Alopecurus myosuroides); assay: Test B pre-/postemergence plant response
How it was run: as §2

[12] = system: large crabgrass (Digitaria sanguinalis); assay: Test B pre-/postemergence plant response
How it was run: as §2

[13] = system: wheat (Triticum aestivum); assay: Test B pre-/postemergence plant response
How it was run: as §2

[14] = Postemergence, 125 g ai/ha, visual injury, 0 to 100 scale (0 no effect, 100 complete control), approx. ten days
[15] = Postemergence, 500 g ai/ha, 0 to 100 scale, 0 = no effect, 100 = complete control, approx. ten days
[16] = Preemergence, 125 g ai/ha, 0 to 100 scale, 0 = no effect, 100 = complete control
[17] = Preemergence, 500 g ai/ha, visual injury, 0 to 100 scale (0 no effect, 100 complete control), approx. ten days
[18] = 250 g ai/ha, Preemergence, 0 to 100 scale
[19] = Postemergence, 31 g ai/ha, scale 0 to 100 (0 no effect, 100 complete control)
[20] = Postemergence, 62 g ai/ha, scale 0 (no effect) to 100 (complete control), 13 to 15 days
[21] = Postemergence, 125 g ai/ha, visual rating after 13 to 15 days, scale 0 (no effect) to 100 (complete control)
[22] = Postemergence, 250 g ai/ha, scale 0 to 100
[23] = Preemergence, 31 g ai/ha, scale 0 to 100 (0 no effect, 100 complete control)
[24] = Preemergence, 62 g ai/ha, scale 0 to 100, 0 no effect, 100 complete control
[25] = Preemergence, 125 g ai/ha, 0 to 100 scale

Structure (SMILES): Cc1ccc(-n2c(-c3cccc(Cl)c3)ncc(C(=O)C3=C(O)CCCC3=O)c2=O)cc1 [Compound 39]
- Pigweed plant response rating [1, 14]: 100
- Plant response rating, Pigweed [1, 15]: 100
- Plant response rating, Pigweed [1, 16]: 60
- Plant response rating, Pigweed [1, 17]: 90
- Barnyardgrass plant response rating [2, 14]: 60
- Plant response rating, Barnyardgrass [2, 15]: 90
- Plant response rating, Barnyardgrass [2, 16]: 10
- Plant response rating, Barnyardgrass [2, 17]: 90
- Plant response rating, Bromegrass, Downy [3, 18]: 0
- Plant response rating, Bromegrass, Downy [3, 19]: 0
- Plant response rating, Bromegrass, Downy [3, 20]: 0
- Plant response rating, Bromegrass, Downy [3, 21]: 0
- Bromegrass, Downy plant response rating [3, 22]: 0
- Plant response rating, Bromegrass, Downy [3, 23]: 0
- Plant response rating, Bromegrass, Downy [3, 24]: 0
- Bromegrass, Downy plant response rating [3, 25]: 0
- Plant response rating, Goosegrass [4, 18]: 100
- Plant response rating, Goosegrass [4, 20]: 55
- Plant response rating, Goosegrass [4, 21]: 65
- Goosegrass plant response rating [4, 22]: 75
- Plant response rating, Goosegrass [4, 23]: 85
- Goosegrass plant response rating [4, 25]: 100
- Plant response rating, Cupgrass, Woolly [5, 18]: 10
- Plant response rating, Cupgrass, Woolly [5, 19]: 65
- Plant response rating, Cupgrass, Woolly [5, 20]: 85
- Plant response rating, Cupgrass, Woolly [5, 21]: 85
- Cupgrass, Woolly plant response rating [5, 22]: 90
- Plant response rating, Cupgrass, Woolly [5, 23]: 0
- Plant response rating, Cupgrass, Woolly [5, 24]: 0
- Cupgrass, Woolly plant response rating [5, 25]: 0
- Plant response rating, Morningglory [6, 18]: 100
- Plant response rating, Morningglory [6, 20]: 75
- Plant response rating, Morningglory [6, 21]: 75
- Plant response rating, Morningglory [6, 23]: 0
- Plant response rating, Morningglory [6, 24]: 0
- Morningglory plant response rating [6, 25]: 15
- Plant response rating, Velvetleaf [7, 18]: 98
- Plant response rating, Velvetleaf [7, 20]: 80
- Plant response rating, Velvetleaf [7, 21]: 80
- Plant response rating, Velvetleaf [7, 23]: 15
- Velvetleaf plant response rating [7, 25]: 75
- Plant response rating, Surinam Grass [8, 18]: 15
- Plant response rating, Surinam Grass [8, 20]: 65
- Plant response rating, Surinam Grass [8, 21]: 65
- Plant response rating, Surinam Grass [8, 23]: 0
- Surinam Grass plant response rating [8, 25]: 10
- Plant response rating, Ryegrass, Italian [9, 18]: 0
- Plant response rating, Ryegrass, Italian [9, 20]: 5
- Plant response rating, Ryegrass, Italian [9, 21]: 5
- Plant response rating, Ryegrass, Italian [9, 23]: 0
- Ryegrass, Italian plant response rating [9, 25]: 0
- Plant response rating, Nutsedge, Yellow [10, 18]: 10
- Plant response rating, Nutsedge, Yellow [10, 20]: 0
- Plant response rating, Nutsedge, Yellow [10, 21]: 15
- Plant response rating, Nutsedge, Yellow [10, 23]: 0
- Nutsedge, Yellow plant response rating [10, 25]: 0
- Plant response rating, Blackgrass [11, 18]: 0
- Plant response rating, Blackgrass [11, 19]: 0
- Plant response rating, Blackgrass [11, 20]: 0
- Plant response rating, Blackgrass [11, 21]: 0
- Blackgrass plant response rating [11, 22]: 20
- Plant response rating, Blackgrass [11, 23]: 0
- Plant response rating, Blackgrass [11, 24]: 0
- Blackgrass plant response rating [11, 25]: 0
- Plant response rating, Crabgrass, Large [12, 18]: 100
- Plant response rating, Crabgrass, Large [12, 19]: 75
- Plant response rating, Crabgrass, Large [12, 20]: 80
- Plant response rating, Crabgrass, Large [12, 21]: 85
- Crabgrass, Large plant response rating [12, 22]: 90
- Plant response rating, Crabgrass, Large [12, 23]: 55
- Plant response rating, Crabgrass, Large [12, 24]: 95
- Crabgrass, Large plant response rating [12, 25]: 100
- Plant response rating, Wheat [13, 18]: 0
- Plant response rating, Wheat [13, 20]: 5
- Plant response rating, Wheat [13, 21]: 5
- Plant response rating, Wheat [13, 23]: 0
- Wheat plant response rating [13, 25]: 0
